Several values for one entry are separate records, joined by “and”; a condition that tells them apart may be missing. Equal entries are not always repeated. Peptide text beside a SMILES is read from it.
Tests used:
[1] = not given; remark: listed apart in the source
[2] = not given; remark: listed apart in the source
[3] = not given; remark: listed apart in the source
[4] = larger oligomers or early nucleated structures; 1 µM Cy5-SLP in 4 mM unlabeled SLP, PBS pH 7.4; early assembly phase, measured after 5 min of preparatory work
Method: To validate this hypothesis, we performed fluorescence correlation spectroscopy (FCS) measurements to study the diffusion properties of SLPs in the early phase of self-assembly. […] To explore these size differences in more detail, we fitted the FCS data with a higher-order fitting model. Maximum entropy method (MEM) was chosen to account for the polydispersity of the oligomers. Each condensed fraction was treated as one quasi-continuous distribution, so as to provide the widest data-complying size distribution (least chance of overinterpretation)[34].
The measurement concentration was 4 mM of SLPs in PBS (pH 7.4) of which 1 out of 4000 peptides was labeled with Cy5. The FCS autocorrelation curves were fitted with the maximum entropy method (MEM) for higher-resolution analysis on size distribution, indicated by the solid lines. c The size distribution of SLPs obtained from MEM analysis of the FCS measurements. The dashed line at D = 150 µm^2/s indicates the cut-off size between monomeric (D > 150) and oligomer (D < 150) populations.
Fluorescence time traces were obtained by focusing a 640-nm laser line through a water immersion objective lens (×60 Plan Apo VC, N.A. 1.2, Nikon, Japan) at ~50 µm above the bottom of the glass-bottom 96-well plate (Grainer Bio-one, Frickenhausen, Germany). […] After 5 min of preparatory work, 50 µl of sample was measured with confocal microscope (Nikon C1). […]

[5] = Solid-state NMR population profiling (dipolar CP and scalar INEPT spectra) of fibril and non-fibril assemblies; type: physicochemical; details: 4 mM, pH 7.4 in PBS, 3 days, 500 MHz, 10 kHz MAS, 280 K; for normalization scaling factor of the dipolar ssNMR spectrum relative to SLP1 (higher factor = lower fibrillization yield): dipolar CP spectra report on rigid 1D nanofibers
Method: As a next step, we hypothesized that higher-resolution methods might disclose further differences in the properties of the SLP assemblies. To examine our hypothesis, we profiled the SLP1–4 assemblies using ssNMR spectroscopy. Using the same conditions (4 mM, pH 7.4 in PBS for 3 days), we acquired the so-called dipolar cross-polarization (CP) ssNMR spectra and so-called scalar INEPT ssNMR spectra on isotopically (^13C, ^15N) labeled SLP assemblies (see “Methods”), which enables to quantify rigid and mobile populations of peptide assemblies in the systems[36] (Fig. 3b). While dipolar signals report on immobilized peptides in 1D assemblies, scalar spectra report on peptides with fast pico-to-nanosecond dynamics, which can either be monomeric peptides or micellar oligomers[16],[32]. We specifically labeled residues in the hydrophobic tail (Val1–2 and Leu6–7) that are responsible for the self-assembly. […] The intensity of the dipolar spectra correlates with the amount of rigid cross-β structure present in the system. We observe that the intensities of dipolar signal of SLP1 is larger than SLP2 (normalization scaling factor of 10, Fig. 3b) and SLP3 (normalization scaling factor of 25, Fig. 3b), which indicate the relative fibrillization yield of SLP1 > SLP2 > SLP3. […]
1D CP[48] and scalar[49] ssNMR experiments to probe rigid and mobile populations, respectively, were acquired at 11.7 T magnetic field (500 MHz (^1H frequency) with 10 kHz magic angle spinning (MAS) and 280 K sample temperature. 2D ^13C–^13C and 2D CαN for peptide assignments were also performed at similar conditions. 2D Ca(N)H experiments for ^15NT1rho relaxation studies were performed at 950 MHz magnetic field strength with 60 kHz. ^13C was detected in the indirect dimension because of spectral overlap in the ^15N dimension. The 2D ^13C–^13C PARIS[37] experiment with the CPMAS CryoProbe[39] to measure intermolecular peptide contacts was performed at 600 MHz and 12 kHz MAS using 700 ms magnetization transfer and a ^1H recoupling amplitude of 6 kHz.

[6] = Negative-staining TEM and AFM of the mesoscale structure of SLP assemblies; type: physicochemical; details: 4 mM, pH 7.4 in PBS
Method: Next, we investigated the downstream effect of the differences in size of oligomeric particles and β-sheet propensities on the supramolecular self-assembly. One of the pivotal events in defining supramolecular self-assembly is whether nucleation has taken place or not. This can be identified by the mesoscale structures of the assemblies after certain time of incubation, e.g., the formation of one-dimensional (1D) nanostructures is indicative that nucleation has taken place. We used negative-staining transmission electron microscopy (TEM) and atomic force microscopy (AFM) to compare SLPs that were assembled under the same preparation protocol (4 mM, pH 7.4 in phosphate-buffered saline (PBS) for 3 days). We could indeed detect markedly different mesoscale structures in these SLP systems (Figs. 3a and S1). […] Based on these mesoscale evidences, we can deduce that nucleation occurred in SLP1–3, however, not in SLP4.
Peptide assemblies were prepared by dissolving peptide powders in nine volumes of 10 mM sodium hydroxide in 1.5 ml Eppendorf tube. One volume of PBS (10×) was added to make sample of pH 7.4 ± 0.2 and a final concentration of 4 mM. Solution was vortexed for 5 s and incubated statically for 3 days at room temperature before proceeding for measurements.
Samples prepared at 4 mM were diluted tenfold with 1× PBS. Formvar/carbon-coated 400 mesh copper grid (Polysciences Inc.) was placed on top of a droplet of 20 μl of diluted samples. After 2-min incubation, the grid was washed three times with […] filtered mili-Q water and blotted dry with filter paper. Negative staining was performed for 1 min with 2% w/v uranyl acetate in water. Staining solution was blotted off with filter paper. […]
AFM micrographs were recorded using a Bruker MultiMode 8 (ScanAsyst Air silicon nitride probes, spring constant 0.4 N/m, nominal tip radius 2 nm) and post-processed by a plane subtraction and line alignment. Three different spots (one in main text, two in Fig. S3) were measured on the sample to confirm uniformity and get a comprehensive view of the sample’s features.

| diameter of the assembled nanostructures ([6]; TEM/AFM, 3 days) | nucleation event deduced from mesoscale structure ([6]; TEM/AFM, 3 days) | dipolar ssNMR signals (immobile assemblies) [5] | SMILES | XRD cross-β reflection [Å] | oligomer diffusion coefficient, fold smaller than SLP3–4 [1] | nanofiber length [2] [nm] | nanofiber diameter [3] [nm] | diffusion coefficient of the SLP population (MEM analysis of FCS) [4] | normalization scaling factor of the dipolar ssNMR spectrum relative to SLP1 (higher factor = lower fibrillization yield) [5] | mesoscale structure of the assemblies (TEM, AFM) ([6]; 3 days static at room temperature) |
| --- | --- | --- | --- | --- | --- | --- | --- | --- | --- | --- |
|  |  |  | CC[C@H](C)[C@H](NC(=O)[C@@H](NC(=O)[C@@H](NC(=O)[C@@H](NC(=O)[C@@H](NC(C)=O)C(C)C)C(C)C)C(C)C)[C@@H](C)O)C(=O)N[C@@H](CC(C)C)C(=O)N[C@@H](CC(C)C)C(=O)N[C@@H](CCC(=O)O)C(=O)N[C@@H](CCC(=O)O)C(=O)O [SLP1] (Ac-VVVTILLEE-OH) | 4.7 | 10 times and 10 fold | > 1000 | 10 | 0.1–1 µm^2/s |  |  |
|  |  |  | CC(=O)N[C@H](C(=O)N[C@H](C(=O)N[C@H](C(=O)N[C@H](C(=O)N[C@@H](CC(C)C)C(=O)N[C@@H](CC(C)C)C(=O)N[C@@H](CC(C)C)C(=O)N[C@@H](CCC(=O)O)C(=O)N[C@@H](CCC(=O)O)C(=O)O)[C@@H](C)O)C(C)C)C(C)C)C(C)C [SLP2] (Ac-VVVTLLLEE-OH) | 4.7 |  | > 1000 |  |  | 10 |  |
|  |  |  | CC[C@H](C)[C@H](NC(=O)[C@@H](NC(=O)[C@@H](NC(=O)[C@@H](NC(=O)[C@@H](NC(C)=O)C(C)C)C(C)C)C(C)C)[C@@H](C)O)C(=O)N[C@@H](CC(C)C)C(=O)N[C@@H](CC(C)C)C(=O)N[C@@H](CCC(=O)O)C(=O)N[C@@H](CCC(=O)O)C(=O)N[C@@H](CCC(=O)O)C(=O)O [SLP3] (Ac-VVVTILLEEE-OH) | 4.7 |  | > 1000 | 10 |  | 25 |  |
| 10–60 nm | no nucleation event has taken place | absent | CC(=O)N[C@H](C(=O)N[C@H](C(=O)N[C@H](C(=O)N[C@H](C(=O)N[C@@H](CC(C)C)C(=O)N[C@@H](CC(C)C)C(=O)N[C@@H](CC(C)C)C(=O)N[C@@H](CCC(=O)O)C(=O)N[C@@H](CCC(=O)O)C(=O)N[C@@H](CCC(=O)O)C(=O)O)[C@@H](C)O)C(C)C)C(C)C)C(C)C [SLP4] (Ac-VVVTLLLEEE-OH) |  |  |  |  |  |  | polydisperse zero-dimensional nanostructures |
